# According to US8148089B2, “Alpha-synuclein kinase” (Elan Pharma International Limited, priority 2006, dated 2012):
# Where two headings read alike, the source gives them in different places.
# Experiments:
# PLK2 = PLK2 (Homo sapiens, UniProt Q9NYY3); assay: Straight biochemical assay: PLK2-driven synuclein phosphorylation in vitro; details: Table 19
# [1] = tested on: synuclein phosphorylation in C56BL/6 E46K-Synuclein transgenic mouse cortical cultures; type: cell-based
# Protocol: (§1) Mouse cortical cultures from fetal (i) Swiss-Webster, (ii) C56BL/6 WT and (iii) C56BL/6 E46K-Synuclein Trangenic mice were prepared and maintained in B27/DMEM/1% Penicillin-Streptomycin at 37° C./10% CO2 for three to fourteen days and then treated with kinase inhibitors.
# (§2) Cultures were exposed to inhibitors for two hours in B27/DMEM/1% Penicillin-Streptomycin. Cells were immediately washed in 100 μL of PBS plus Mg^2+ and Ca^2+, and harvested in ice-cold CEB minus EGTA plus protease inhibitors, frozen on dry ice and stored at −80° C. until processed. A Micro BCA (Pierce) total protein assay, and total synuclein and phospho-synuclein ELISAs were performed on each plate of treated cells using standard methods.
# [2] = tested on: synuclein phosphorylation in rat ventral mesencephalon cultures (E46K-Synuclein lentivirus); assay: Synuclein phosphorylation in RVM transduced with E46K-Synuclein; type: cell-based
# Protocol: (§3) Rat Ventral Mesencephalon (RVM) cultures were prepared from E15 Wistar rats. The RVM cultures were cultured for 2 days and transduced with 0.75 MOI E46K-Synuclein lentivirus alone, or 0.75 MOI E46K-Synuclein lentivirus plus 0.75 MOI ca-PLK2 lentivirus. […] Transduced cultures were maintained in neuronal media with B27/1% FBS and 37° C./5% CO2 until treated with inhibitors. On DIV 17 (which corresponds to 15 days after viral transduction of the cultures) cells were treated with inhibitors for two hours. Cells were then harvested as detailed above in neuronal media with B27/1% FBS. A Micro BCA (Pierce) total protein assay, and total synuclein and phospho-synuclein ELISAs were performed on each plate of treated cells using standard methods.
# [3] = tested on: synuclein phosphorylation in rat ventral mesencephalon cultures (E46K-Synuclein plus ca-PLK2 lentivirus); assay: Synuclein phosphorylation in RVM transduced with E46K-Synuclein and caPLK2; type: cell-based; details: for EC50: inhibitor 2 h on DIV 17
# Protocol: as §3
# In caPLK2 the polo-box has been deleted, activating the Thr to Asp mutation in the kinase activation loop.
# endogenous kinase (293) = assay: Synuclein phosphorylation by endogenous kinase in HEK-293 cells (synuclein + vector); type: cell-based, human
# Protocol: (§4) All vectors had the sequence coding for the protein of interest. Transfection was accomplished using Lipofectamine 2000 (Invitrogen, Carlsbad, Calif.) with 0.08 μg vector. Cells were washed and harvested 48 hours post-transfection. A Micro BCA (Pierce) total protein assay and total synuclein and phospho-synuclein ELISAs were performed on each plate of treated cells.
# [4] = target: T1, over-expressed PLK2 (293) (Homo sapiens, UniProt Q9NYY3); assay: Synuclein phosphorylation in HEK-293 cells over-expressing synuclein and PLK2; type: cell-based; details: for Rank order of potency, Over-Expressed PLK2 (293): Table 19; for Rank order of potency, Synuclein + PLK2: Table 22
# T1 construct: expressed in transfected cells; host or cells: HEK-293 naive cells, CMV-promoter expression vector, Lipofectamine 2000
# T1 sequence (Q9NYY3 whole entry): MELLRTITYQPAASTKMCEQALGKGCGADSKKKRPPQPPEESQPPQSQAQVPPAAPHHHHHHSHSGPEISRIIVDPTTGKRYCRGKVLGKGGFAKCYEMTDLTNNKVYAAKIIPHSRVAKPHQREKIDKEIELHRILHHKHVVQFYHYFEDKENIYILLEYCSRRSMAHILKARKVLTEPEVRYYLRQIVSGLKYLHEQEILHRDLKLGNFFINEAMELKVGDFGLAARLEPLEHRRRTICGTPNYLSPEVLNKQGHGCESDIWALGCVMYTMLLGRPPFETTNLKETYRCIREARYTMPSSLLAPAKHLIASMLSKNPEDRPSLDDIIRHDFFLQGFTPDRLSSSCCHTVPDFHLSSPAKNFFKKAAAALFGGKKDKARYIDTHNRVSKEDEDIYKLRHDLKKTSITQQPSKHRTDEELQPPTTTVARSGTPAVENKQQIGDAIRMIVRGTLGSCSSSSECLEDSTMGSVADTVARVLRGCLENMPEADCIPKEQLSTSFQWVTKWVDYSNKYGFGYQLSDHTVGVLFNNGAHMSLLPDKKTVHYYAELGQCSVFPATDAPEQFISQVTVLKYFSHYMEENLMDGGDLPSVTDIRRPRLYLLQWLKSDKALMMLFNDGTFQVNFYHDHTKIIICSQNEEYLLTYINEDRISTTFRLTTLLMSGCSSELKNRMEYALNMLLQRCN
# Protocol: as §4
# [5] = target: T2, over-expressed PLK3 (293) (Homo sapiens, UniProt Q9H4B4); assay: Synuclein phosphorylation in HEK-293 cells over-expressing synuclein and PLK3; type: cell-based; details: for Rank order of potency, Synuclein + PLK3: Table 22
# T2 construct: expressed in transfected cells; host or cells: HEK-293 naive cells, CMV-promoter expression vector
# T2 sequence (Q9H4B4 whole entry): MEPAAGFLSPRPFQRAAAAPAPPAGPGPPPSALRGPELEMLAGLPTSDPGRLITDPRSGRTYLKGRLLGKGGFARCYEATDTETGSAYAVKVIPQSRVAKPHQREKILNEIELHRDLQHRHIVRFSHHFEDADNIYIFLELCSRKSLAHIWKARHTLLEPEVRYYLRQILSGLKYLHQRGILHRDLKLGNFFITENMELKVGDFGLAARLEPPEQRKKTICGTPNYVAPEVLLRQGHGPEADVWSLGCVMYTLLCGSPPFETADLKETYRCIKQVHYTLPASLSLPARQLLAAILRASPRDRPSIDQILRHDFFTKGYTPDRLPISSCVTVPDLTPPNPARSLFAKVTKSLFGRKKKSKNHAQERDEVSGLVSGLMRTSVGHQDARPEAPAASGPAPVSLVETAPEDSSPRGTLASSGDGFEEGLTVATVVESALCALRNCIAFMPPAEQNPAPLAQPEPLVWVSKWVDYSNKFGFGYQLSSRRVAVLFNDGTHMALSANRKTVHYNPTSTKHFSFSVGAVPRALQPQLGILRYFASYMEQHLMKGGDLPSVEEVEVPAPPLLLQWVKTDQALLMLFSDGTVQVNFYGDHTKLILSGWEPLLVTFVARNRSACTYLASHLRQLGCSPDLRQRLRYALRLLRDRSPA
# Protocol: as §4
# [6] = target: T3, over-expressed PLK4 (293) (Homo sapiens, UniProt O00444); assay: Synuclein phosphorylation in HEK-293 cells over-expressing synuclein and PLK4; type: cell-based; details: for EC50: HEK-293, Example 16, read-out: EC50 based on percent inhibition of synuclein phosphorylation, Synuclein + PLK4
# T3 sequence (O00444 1-970): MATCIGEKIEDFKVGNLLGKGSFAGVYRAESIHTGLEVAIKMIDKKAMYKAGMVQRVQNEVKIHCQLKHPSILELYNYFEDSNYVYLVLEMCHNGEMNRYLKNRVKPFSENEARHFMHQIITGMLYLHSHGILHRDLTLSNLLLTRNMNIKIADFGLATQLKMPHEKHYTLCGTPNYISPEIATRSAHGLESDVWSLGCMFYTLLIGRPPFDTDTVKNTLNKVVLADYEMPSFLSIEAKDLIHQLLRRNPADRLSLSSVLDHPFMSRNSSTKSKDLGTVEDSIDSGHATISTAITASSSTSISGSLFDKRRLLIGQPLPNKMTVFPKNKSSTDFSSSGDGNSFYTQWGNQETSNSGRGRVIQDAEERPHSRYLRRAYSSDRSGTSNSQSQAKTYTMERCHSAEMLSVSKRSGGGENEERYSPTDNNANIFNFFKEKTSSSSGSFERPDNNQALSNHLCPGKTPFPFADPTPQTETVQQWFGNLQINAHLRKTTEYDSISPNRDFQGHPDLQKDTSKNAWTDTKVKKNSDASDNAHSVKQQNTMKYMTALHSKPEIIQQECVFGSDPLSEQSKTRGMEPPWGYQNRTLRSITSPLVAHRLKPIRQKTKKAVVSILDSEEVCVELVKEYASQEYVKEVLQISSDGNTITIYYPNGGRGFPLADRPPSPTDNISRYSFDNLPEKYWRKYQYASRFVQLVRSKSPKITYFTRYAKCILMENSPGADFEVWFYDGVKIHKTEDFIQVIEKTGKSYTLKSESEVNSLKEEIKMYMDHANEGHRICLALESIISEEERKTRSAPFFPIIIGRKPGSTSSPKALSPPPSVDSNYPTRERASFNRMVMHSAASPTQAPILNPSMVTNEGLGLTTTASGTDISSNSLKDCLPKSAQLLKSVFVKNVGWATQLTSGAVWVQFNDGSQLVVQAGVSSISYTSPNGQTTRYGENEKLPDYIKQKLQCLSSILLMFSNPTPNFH
# Protocol: as §4
# [7] = tested on: synuclein phosphorylation in the cellular paradigms tested; assay: Inhibition of synuclein phosphorylation, several cellular paradigms; type: cell-based
# [8] = target: synuclein phosphorylation by endogenous kinase in C56BL/6 WT mouse cortical cultures; assay: Synuclein phosphorylation in WT mouse cortical cultures (WT-MCC); type: cell-based; details: inhibitor 2 h; phospho-synuclein ELISA
# Protocol: as §1, §2
# [9] = tested on: synuclein phosphorylation in MCC; assay: Synuclein phosphorylation in MCC treated with TBB; type: cell-based, mouse; details: even at concentrations of 100 μM; data not shown
# Protocol: as §1, §2
# To confirm that the inhibitory effect DMAT is due to inhibition of […], MCC were treated with TBB, a very specific CKII inhibitor. TBB had no effect on synuclein phosphorylation, even at concentrations of 100 μM (data not shown). Thus, we are confident that the inhibitory effect of DMAT on synuclein phosphorylation is due to its direct activity on PLK2 and not CKII.
# PLK2, sequence (Q9NYY3 whole entry): as the sequence (Q9NYY3 whole entry) above
compound,measurement,setting,value
"CN(C)c1nc2c(Br)c(Br)c(Br)c(Br)c2[nH]1 [DMAT, 2-Dimethylamino-4,5,6,7-tetrabromo-1H-benzimidazole]","Rank order of potency, Straight Biochemical",PLK2,2
same,"Rank order of potency, E46K-Syn TG MCC",[1]; Table 19,4
same,"Rank order of potency, RVM E46K-Synuclein",[2]; Table 19,4
same,EC50,[3]; Rattus norvegicus,28.5 µM
same,"Rank order of potency, RVM E46K-Synuclein caPLK2",[3]; Table 19,4
same,"Rank order of potency, Synuclein + Vector",endogenous kinase (293); Table 22,2
same,"Rank order of potency, Over-Expressed PLK2 (293)",[4],4
same,"Rank order of potency, Synuclein + PLK2",[4],2
same,"Rank order of potency, Synuclein + PLK3",[5],2
same,EC50,[6],74.3 µM
same,"Rank order of potency, Synuclein + PLK4",[6]; Table 22,2
same,EC50,"[7]; Homo sapiens, HEK293, read-out: EC50 values for the over-expressed PLKs",14 to 74 µM
same,EC50,[7]; read-out: EC50 values for inhibition of synuclein phosphorylation in the cellular paradigms,16 to 33 µM
NC(=O)c1sc2c([N+](=O)[O-])cc(C(F)(F)F)cc2[n+]1[O-] [ELN-481080],"Rank order of potency, Straight Biochemical",PLK2,3
same,EC50,[3]; Rattus norvegicus,25.2 µM
same,"Rank order of potency, Over-Expressed PLK2 (293)",[4],5
same,"Rank order of potency, Synuclein + PLK2",[4],3
same,"Rank order of potency, Synuclein + PLK3",[5],3
same,inhibition of synuclein phosphorylation by over-expressed PLK3,[5]; concentrations of 30-100 μM,30-40%
same,EC50,[6],> 100 µM
same,inhibition of synuclein phosphorylation by over-expressed PLK4,[6]; concentrations of 30-100 μM,30-40%
same,EC50,"[7]; range over (most of) the cell types tested, read-out: EC50 values for inhibition of synuclein phosphorylation in the cellular paradigms",12 to 38 µM
Scytonemin,EC50,[8],> 100 µM
same,EC50,"[1]; inhibitor 2 h, phospho-synuclein ELISA, read-out: E46K-Syn TG MCC (EC50)",> 100 µM
same,EC50,[2]; inhibitor 2 h on DIV 17,> 100 µM
same,EC50,[3],> 100 µM
same,EC50,endogenous kinase (293); Table 18,> 100 µM
same,inhibition of 50% of synuclein phosphorylation,[7]; in any of the cells or in the in vitro assay,did not inhibit 50% of synuclein phosphorylation
COC[C@H]1OC(=O)c2coc3c2[C@@]1(C)C1=C(C3=O)[C@@H]2CCC(=O)[C@@]2(C)C[C@H]1OC(C)=O [Wortmannin],EC50,[3]; Rattus norvegicus,> 100 µM
"CC[C@@H]1C(=O)N(C)c2cnc(Nc3ccc(C(=O)NC4CCN(C)CC4)cc3OC)nc2N1C1CCCC1 [ELN-481574-2, 4-[[(7r)-8-cyclopentyl-7-ethyl-5,6,7,8-tetrahydro-5-methyl-6-oxo-2-pteridinyl]amino]-3-methoxy-n-(1-methyl-4-piperidinyl)-benzamide]",EC50,"[7]; most EC50 values, all cellular paradigms, read-out: EC50 values in cellular paradigms",≤ 0.1 µM
"Brc1c(Br)c(Br)c2[nH]nnc2c1Br [TBB, 4,5,6,7-Tetrabromo-2-azabenzimidazole]",effect on synuclein phosphorylation,[9],no effect
